Data published in patent publication US20230096766A1, “AMINO ACID HAVING FUNCTIONAL GROUP CAPABLE OF INTERMOLECULAR HYDROGEN BONDING, PEPTIDE COMPOUND CONTAINING SAME AND METHOD FOR PRODUCTION THEREOF” (Chugai Seiyaku Kabushiki Kaisha, priority 2018, published 2023).
*1 amine or outer side, *2 acyl side, *3 side chain or, on linkers, in order; H or OH if unused. Where a SMILES comes first, the peptide text is derived from it. Bridges are numbered along the chain shown (N, C = ends). [ ]: non-standard residue; d: D form. The star is where a group is joined. NMeHph(3-OMe-4-CONHMe) = CNC(=O)c1ccc(CC[C@H](NC)C(=O)O)cc1OC; dhPhe(4-CONHMe,3-OMe) = CNC(=O)c1ccc(CC[C@@H](N)C(=O)O)cc1OC; Glu(NHSO2Me) = CS(=O)(=O)NC(=O)CC[C@H](N)C(=O)O; Phe(4-CF3) = N[C@@H](Cc1ccc(C(F)(F)F)cc1)C(=O)O; NMePhe(3-Cl) = CN[C@@H](Cc1cccc(Cl)c1)C(=O)O; Tyr(3-F) = N[C@@H](Cc1ccc(O)c(F)c1)C(=O)O; NMeW = CN[C@@H](Cc1c[nH]c2ccccc12)C(=O)O; NMehPhe = CN[C@@H](CCc1ccccc1)C(=O)O; Propyl(2,2-Me2,3-OH) = CC(C)(CO)C*; NMeF = CN[C@@H](Cc1ccccc1)C(=O)O; NMeGABA = CN(CCCC(=O)[*:2])[*:1]; NMeI = CC[C@H](C)[C@H](NC)C(=O)O; NMeL = CN[C@@H](CC(C)C)C(=O)O; NMeV = CN[C@H](C(=O)O)C(C)C; NMeAbu = CC[C@H](NC)C(=O)O; NMeA = CN[C@@H](C)C(=O)O; Piperidide = C1CCN(*)CC1; X8 = C1COC[C@@H](C*)N1; CH2CONHMe = CNC(=O)C*; Me2NCH2CH2 = CN(C)CC*; NBuGly = CCCCNCC(=O)O; Isopentyl = CC(C)CC*; NPrGly = CCCNCC(=O)O; Propyl(3-OH) = OCCC*; Ethyl(2-OH) = OCC*; Sar = CNCC(=O)O; tBu = CC(C)(C)*

Experiment: in vitro
Details: human, Caco-2, Caco-2

SMILES	Papp [×10⁻⁶ cm/s]
CCCCN1CC(=O)N(C)[C@@H](CC(C)C)C(=O)N[C@@H](CCC(=O)NS(C)(=O)=O)C(=O)N(C)[C@@H](Cc2cccc(Cl)c2)C(=O)N(C)[C@@H](C(C)C)C(=O)N[C@H](C(=O)N2CCCCC2)CC(=O)N[C@H](CC(C)C)C(=O)N(C)[C@@H](Cc2cccc(Cl)c2)C(=O)N[C@@H](CC(C)C)C(=O)N(C)[C@@H](CC)C(=O)N[C@@H]([C@@H](C)O)C1=O [pd61] ([dL][NMePhe(3-Cl)]L[NMeAbu]T[NBuGly][NMeL][Glu(NHSO2Me)][NMePhe(3-Cl)][NMeV]D-Piperidide; lactam N-11)	< 0.094
CCCN1CC(=O)N(C)[C@@H](CC(C)C)C(=O)N[C@@H](COCCN(C)C)C(=O)N(C)[C@@H](Cc2ccccc2)C(=O)N(C)[C@@H](C(C)C)C(=O)N[C@H](C(=O)N2CCCCC2)CC(=O)N[C@H](C(C)C)C(=O)N(C)[C@@H](Cc2ccccc2)C(=O)N[C@@H](CC(C)C)C(=O)N(C)[C@@H](CC(C)C)C(=O)N[C@@H]([C@@H](C)O)C1=O [pd52] ([dV][NMeF]L[NMeL]T[NPrGly][NMeL]S(Me2NCH2CH2)[NMeF][NMeV]D-Piperidide; lactam N-11)	0.12
CCCCN1CC(=O)N(C)[C@@H](Cc2ccccc2)C(=O)N[C@@H](COCCN(C)C)C(=O)N(C)[C@@H](CC(C)C)C(=O)N[C@@H]([C@@H](C)O)C(=O)N(C)CC(=O)N(C)[C@@H](Cc2ccccc2)C(=O)N(C)[C@@H](CC)C(=O)N[C@@H](COCCC(C)C)C(=O)N(C)[C@@H](CC(C)C)C(=O)N[C@H](C(=O)N2CCCCC2)CC1=O [pd58] ([NBuGly][NMeF]S(Me2NCH2CH2)[NMeL]T[Sar][NMeF][NMeAbu]S(Isopentyl)[NMeL]D-Piperidide; lactam N-11)	0.021

Same assay, conditions: human, Caco-2, Caco-2 (cm/sec)

SMILES	Papp [×10⁻⁶ cm/s]
CCCN1CC(=O)N(C)[C@@H](CC(C)C)C(=O)N[C@H](C(=O)N2CCCCC2)CC(=O)N(C)[C@@H](C)C(=O)N[C@@H](COCCO)C(=O)N(C)[C@@H](CC(C)C)C(=O)N(C)[C@@H](Cc2cccc(Cl)c2)C(=O)N[C@@H](CC(C)C)C(=O)N(C)[C@@H](CCc2ccccc2)C(=O)N(C)[C@@H](CC(C)C)C(=O)N[C@@H]([C@@H](C)O)C1=O [Compound A05] ([NMeA]S(Ethyl(2-OH))[NMeL][NMePhe(3-Cl)]L[NMehPhe][NMeL]T[NPrGly][NMeL]D-Piperidide; lactam N-11)	0.9
CC[C@H](C)[C@@H]1NC(=O)[C@H](CC(C)C)N(C)C(=O)CCCN(C)C(=O)C[C@@H](C(=O)N2CCCCC2)NC(=O)[C@H](CC(C)C)N(C)C(=O)[C@H](CC(C)C)N(C)C(=O)[C@H]([C@@H](C)O)NC(=O)[C@H](CC(C)C)N(C)C(=O)[C@H](COC(C)(C)C)NC(=O)[C@H](Cc2ccccc2)N(C)C(=O)[C@H](CCc2ccc(C(=O)NC)c(OC)c2)N(C)C1=O [AP227] ([NMeGABA][NMeL]I[NMeHph(3-OMe-4-CONHMe)][NMeF]S(tBu)[NMeL]T[NMeL][NMeL]D-Piperidide; lactam N-11)	0.48
CC[C@H](C)[C@@H]1NC(=O)[C@H](CC(C)C)N(C)C(=O)CCCN(C)C(=O)C[C@@H](C(=O)N2CCCCC2)NC(=O)[C@H](CC(C)C)N(C)C(=O)[C@H](CC(C)C)N(C)C(=O)[C@H]([C@@H](C)O)NC(=O)[C@H](CC(C)C)N(C)C(=O)[C@H](COCC(C)(C)CO)NC(=O)[C@H](Cc2ccccc2)N(C)C(=O)[C@H](Cc2ccccc2)N(C)C1=O [AP120] ([NMeGABA][NMeL]I[NMeF][NMeF]S(Propyl(2,2-Me2,3-OH))[NMeL]T[NMeL][NMeL]D-Piperidide; lactam N-11)	1.1
CC[C@H]1C(=O)N[C@H](CCc2ccc(C(=O)NC)c(OC)c2)C(=O)N(C)[C@@H](CC(C)C)C(=O)N(C)[C@@H](CC(C)C)C(=O)N[C@@H](C(C)C)C(=O)N(C)[C@@H](Cc2ccccc2)C(=O)N(C)[C@@H](CC(C)C)C(=O)N[C@@H]([C@@H](C)O)C(=O)N(C)CC(=O)N(C)[C@@H](CC(C)C)C(=O)N[C@H](C(=O)N2CCCCC2)CC(=O)N1C [AP213] ([NMeAbu][dhPhe(4-CONHMe,3-OMe)][NMeL][NMeL]V[NMeF][NMeL]T[Sar][NMeL]D-Piperidide; lactam N-11)	0.34
CC(C)C[C@H]1C(=O)N(C)[C@@H](Cc2c[nH]c3ccccc23)C(=O)N(C)[C@@H](Cc2ccccc2)C(=O)N[C@@H]([C@@H](C)O)C(=O)N(C)[C@@H](C)C(=O)N(C)[C@@H](CC(C)C)C(=O)N[C@H](C(=O)N2CCCCC2)CC(=O)N(C)[C@@H](C)C(=O)N(C)[C@@H](CC(C)C)C(=O)N(C)[C@@H](CC(C)C)C(=O)N[C@@H](C(C)C)C(=O)N1C [pd109] ([NMeA][NMeL][NMeL]V[NMeL][NMeW][NMeF]T[NMeA][NMeL]D-Piperidide; lactam N-11)	0.0092
CCCCN1CC(=O)N(C)[C@@H](Cc2ccccc2)C(=O)N(C)[C@@H](CC(C)C)C(=O)N[C@@H](COCC(C)(C)CO)C(=O)N(C)[C@@H](CC(C)C)C(=O)N[C@H](C(=O)N2CCCCC2)CC(=O)N(C)CC(=O)N(C)[C@@H](Cc2ccccc2)C(=O)N[C@@H](C(C)C)C(=O)N(C)[C@@H](CC(C)C)C(=O)N[C@@H]([C@@H](C)O)C1=O [AP124] ([Sar][NMeF]V[NMeL]T[NBuGly][NMeF][NMeL]S(Propyl(2,2-Me2,3-OH))[NMeL]D-Piperidide; lactam N-11)	1.6
CCCCN1CC(=O)N(C)[C@@H](Cc2cccc(Cl)c2)C(=O)N(C)[C@@H](CC(C)C)C(=O)N[C@@H](COCCCO)C(=O)N(C)[C@@H](CC(C)C)C(=O)N[C@H](C(=O)N2CCCCC2)CC(=O)N(C)CC(=O)N(C)[C@@H](Cc2ccccc2)C(=O)N[C@@H]([C@@H](C)CC)C(=O)N(C)[C@@H](CC(C)C)C(=O)N[C@@H]([C@@H](C)O)C1=O [AP96] ([Sar][NMeF]I[NMeL]T[NBuGly][NMePhe(3-Cl)][NMeL]S(Propyl(3-OH))[NMeL]D-Piperidide; lactam N-11)	0.17
CC(C)C[C@@H]1NC(=O)[C@H](Cc2ccccc2)N(C)C(=O)[C@H](C)NC(=O)C[C@@H](C(=O)N2CCCCC2)NC(=O)[C@H](Cc2ccccc2)N(C)C(=O)[C@H](Cc2ccccc2)N(C)C(=O)[C@H](COC(C)(C)C)NC(=O)[C@H](CC(C)C)N(C)C(=O)CN(C)C(=O)[C@H]([C@@H](C)O)NC(=O)[C@H](CC(C)C)N(C)C1=O [pd217] (A[NMeF]L[NMeL]T[Sar][NMeL]S(tBu)[NMeF][NMeF]D-Piperidide; lactam N-11)	1.1
CCCCN1CC(=O)N(C)[C@@H](CC(C)C)C(=O)N[C@@H](COC(C)(C)C)C(=O)N(C)[C@@H](CC(C)C)C(=O)N(C)[C@@H](CC)C(=O)N[C@H](C(=O)N2CCCCC2)CC(=O)N[C@H](CC(C)C)C(=O)N(C)[C@@H](Cc2ccccc2)C(=O)N[C@H](CCc2ccc(C(=O)NC)c(OC)c2)C(=O)N(C)[C@@H](CC(C)C)C(=O)N[C@@H]([C@@H](C)O)C1=O [AP209] ([dL][NMeF][dhPhe(4-CONHMe,3-OMe)][NMeL]T[NBuGly][NMeL]S(tBu)[NMeL][NMeAbu]D-Piperidide; lactam N-11)	0.56
CC(C)C[C@@H]1NC(=O)[C@H](CC(C)C)N(C)C(=O)[C@H](Cc2ccccc2)N(C)C(=O)CN(C)C(=O)[C@H]([C@@H](C)O)NC(=O)[C@H](CC(C)C)N(C)C(=O)[C@H](Cc2ccc(O)c(F)c2)NC(=O)[C@H](CC(C)C)N(C)C(=O)CN(C)C(=O)C[C@@H](C(=O)N2CCCCC2)NC(=O)[C@H](CC(C)C)N(C)C1=O [pd123] ([Sar][NMeL][Tyr(3-F)][NMeL]T[Sar][NMeF][NMeL]L[NMeL]D-Piperidide; lactam N-11)	0.44
CCCCN1CC(=O)N(C)[C@@H](Cc2ccccc2)C(=O)N(C)[C@@H](C(C)C)C(=O)N[C@@H](COC(C)(C)C)C(=O)N(C)[C@@H](CC(C)C)C(=O)N[C@H](C(=O)N2CCCCC2)CC(=O)N(C)CC(=O)N(C)[C@@H](Cc2cccc(Cl)c2)C(=O)N[C@@H](COCC(C)(C)CO)C(=O)N(C)[C@@H](CC(C)C)C(=O)N[C@@H]([C@@H](C)O)C1=O [AP123] ([Sar][NMePhe(3-Cl)]S(Propyl(2,2-Me2,3-OH))[NMeL]T[NBuGly][NMeF][NMeV]S(tBu)[NMeL]D-Piperidide; lactam N-11)	0.8
CC[C@H](C)[C@@H]1NC(=O)[C@H](CC(C)C)N(C)C(=O)CCCN(C)C(=O)C[C@@H](C(=O)N2CCCCC2)NC(=O)[C@H](CC(C)C)N(C)C(=O)[C@H](CC(C)C)N(C)C(=O)[C@H]([C@@H](C)O)NC(=O)[C@H](CC(C)C)N(C)C(=O)[C@H](COC[C@@H]2COCCN2)NC(=O)[C@H](CC(C)C)N(C)C(=O)[C@H](Cc2ccccc2)N(C)C1=O [AP241] ([NMeGABA][NMeL]I[NMeF][NMeL]S(X8)[NMeL]T[NMeL][NMeL]D-Piperidide; lactam N-11)	0.05

Same assay, conditions: human, Caco-2, Caco-2 (cm/sec) Papp

SMILES	Papp [×10⁻⁶ cm/s]
CC(C)C[C@@H]1NC(=O)[C@H](Cc2ccccc2)N(C)C(=O)[C@H](COC(C)(C)C)NC(=O)[C@H](Cc2ccccc2)N(C)C(=O)[C@H](Cc2ccccc2)N(C)C(=O)[C@H](CC(C)C)N(C)C(=O)[C@@H](CC(C)C)NC(=O)C[C@@H](C(=O)N2CCCCC2)NC(=O)[C@H](Cc2ccccc2)N(C)C(=O)[C@H]([C@@H](C)O)NC(=O)[C@H](CC(C)C)N(C)C1=O [pd243] ([dL][NMeL][NMeF][NMeF]S(tBu)[NMeF]L[NMeL]T[NMeF]D-Piperidide; lactam N-11)	0.057

Same assay, conditions: human, Caco-2, Caco-2 (membrane permeability)

SMILES	Papp [×10⁻⁶ cm/s]
CCCN1CC(=O)N(C)[C@@H](CC(C)C)C(=O)N[C@H](C(=O)N2CCCCC2)CC(=O)N(C)[C@@H](CC(C)C)C(=O)N[C@@H](Cc2ccc(C(F)(F)F)cc2)C(=O)N(C)[C@@H](CC(C)C)C(=O)N(C)[C@@H](CC(C)C)C(=O)N[C@@H](CCC(=O)NC)C(=O)N(C)[C@@H](Cc2ccccc2)C(=O)N(C)[C@@H]([C@@H](C)CC)C(=O)N[C@@H]([C@@H](C)O)C1=O [Compound J04] ([NMeL][Phe(4-CF3)][NMeL][NMeL]E(NHMe)[NMeF][NMeI]T[NPrGly][NMeL]D-Piperidide; lactam N-11)	0.087
CCCCN1CC(=O)N(C)[C@@H](CC(C)C)C(=O)N[C@@H](COCC(=O)NC)C(=O)N(C)[C@@H](CCc2ccccc2)C(=O)N(C)[C@@H](CC(C)C)C(=O)N[C@H](C(=O)N2CCCCC2)CC(=O)N[C@H](CC(C)C)C(=O)N(C)[C@@H](CC(C)C)C(=O)N[C@@H](Cc2ccccc2)C(=O)N(C)[C@@H](CC(C)C)C(=O)N[C@@H]([C@@H](C)O)C1=O [Compound I02] ([dL][NMeL]F[NMeL]T[NBuGly][NMeL]S(CH2CONHMe)[NMehPhe][NMeL]D-Piperidide; lactam N-11)	0.052
